System: TCRV (strain TRVL 11573)
Set-up: species or system AG129 mice
Conditions: mouse, in vivo

In the case of NC(=O)c1ncn([C@@H]2O[C@H](CO)[C@@H](O)[C@H]2O)n1 [Ribavirin, ribavirin], the “Infectious TCRV Liver” value is reported as 4.3, 3.5 log10 CCID50/mL, the “Infectious TCRV Serum” value is reported as 2.5, ND log10 CCID50/mL and the “Infectious TCRV Spleen” value is reported as 6.1, 5.5 log10 CCID50/mL. For the same compound, the survival was 82% and the “viral loads on day 9 p.i. compared to placebo” value was “only modestly reduced viral loads”.

Reference: publication PMC8378549 (Antiviral research, 2021)
